Laboratory results from patent US9556110B2, “Aminoalcohol lipidoids and uses thereof” (Massachusetts Institute of Technology, priority 2008, dated 2017).

Tested on: Factor VII
Assay: In vivo Factor VII knockdown after injection of anti-Factor VII siRNA lipidoid formulations
Parameters: species or system C57BL/6 mice
Conditions: mice, 0.01 mg/kg siRNA dosing
Description: C57BL/6 mice (Charles River Labs) received either saline or siRNA in lipidoid formulations via tail vein injection at a volume of 0.01 ml/g. […] At 48 hours after administration, animals were anesthetized by isofluorane inhalation and blood was collected into serum separator tubes by retroorbital bleed. Serum levels of Factor VII protein were determined in samples using a chromogenic assay (Biophen FVII, Aniara Corporation) according to the manufacturer's protocols. A standard curve was generated using serum collected from saline-treated animals. Exemplary results are depicted in FIG. 7.
To test siRNA delivery efficacy in vivo, a mouse model for liver delivery was used. […] Once produced by hepatocytes, Factor VII is released into the bloodstream, and a baseline level of expression can be determined by simple blood draw and quantification of protein levels by colorimetric assay. By delivering anti-Factor VII siRNA to hepatocytes, knockdown of this model protein can be achieved and a percentage of silencing can be determined by comparison to an untreated control. […]
Following the initial in vivo screening experiments, two compounds were used to conduct a dose response. […] In addition to Factor VII measurement, the change in mouse body weight is recorded and a loss in weight is generally considered formulation induced toxicity (See FIG. 13b and FIG. 14b). […]

Row | SMILES | reduction of systemic Factor VII (preliminary) | difference of Factor VII reduction between racemic lipidoid and R or S forms
1 | CCCCCCCCCC[C@H](O)CN(CCN1CCN(CCN(C[C@@H](O)CCCCCCCCCC)C[C@@H](O)CCCCCCCCCC)CC1)CCN(C[C@@H](O)CCCCCCCCCC)C[C@@H](O)CCCCCCCCCC [(S)—C12-200] | approximately 50% | –
2 | CCCCCCCCCCC(O)CN(CCN1CCN(CCN(CC(O)CCCCCCCCCC)CC(O)CCCCCCCCCC)CC1)CCN(CC(O)CCCCCCCCCC)CC(O)CCCCCCCCCC (racemic) [C12-200] | – | insignificant
